Assay results from patent US20220193253A1, “SLOW-RELEASE CYTOKINE CONJUGATES” (ProLynx LLC, priority 2019, published 2022).
“Also recorded” adds a separate entry of the source.

Columns and labels:
[1] = test system: Treg cells over Teff and NK cells; conditions: cited from earlier work
[2] = test system: cell proliferation; conditions: cited from earlier work
[3] = Pharmacokinetics of [aminopropyl]-IL-15 released from microsphere-IL-15; assay type: in vivo, C57BL/6J mice
Procedure: The microsphere-IL-15 slurry of Example 10 (275 nmol protein/mL) was diluted in 25 mM Na citrate buffer pH 5.9 containing 500 mM NaCl, 0.05% tween-20 and 1.25% (w/v) hyaluronic acid. For studies that required various doses of microsphere-IL15, serial dilutions were used obtain the desired microsphere-IL-15 concentration. In all cases, aseptic conditions were used to handle and prepare the microsphere conjugate. Syringes with fixed needles (27G) were backfilled with the conjugate (100 μL). The contents of the syringes were administered either s.c. or i.p. to normal, male C57BL/6J mice. Blood samples were drawn at −24, 4, 8, 24, 48, 96, 168 and 240 hours from alternating groups consisting of 3 mice each. HALT protease inhibitor cocktail (ThermoFisher Scientific) was added to all plasma samples prior to being frozen at −80° C. until analysis.
ELISAs for hIL-15 were performed according to the manufacturer's instructions (R&D Systems, hIL-15 Quantikine, Catalog #D1500) to determine the rhIL-15 plasma. Plasma samples were thawed on ice prior to dilution in the standard diluent provided by the manufacturer. The 4, 8, hour samples were diluted 50-fold, the 24 hour samples was diluted twenty-five fold, and the pre-bleed, 48, 96, 168 and 240 hour samples were diluted ten-fold. hIL-15 concentrations were plot as a function of time and fit using GraphPad Prism software.
Pharmacokinetics of [aminopropyl]-IL-15 released from the microsphere conjugate were measured in normal C57BL/6J mice. Mice were dosed with 2.4 nmol conjugated protein (200 μL injection). […] After approximately 120 hours, the observed concentration quickly decreases (FIG. 11). A one phase decay model fit of data through 120 results in a half-life of at least 200 hours. […] A second injection of MS-IL-15 (50 μg) increases the measured plasma IL-15 at 248 h to a similar concentration of the initial dose.

[4] = test system: CD44hiCD8+ T cells and NK cells in PBMCs; experiment: Pharmacodynamics of [aminopropyl]-IL-15 released from microsphere-IL-15; assay type: in vivo, C57BL/6J mice; conditions: for expansion of CD44hiCD8+ T cells / expansion of NK cells: single dose 2.5 μg; for expansion of NK cells in PBMCs: single s.c. injection 12.5, 25 or 50 μg
Procedure: For flow cytometry analysis, PMBCs were prepared and surface staining was performed to quantitate NK1.1, CD3, CD8, and CD44 expressing cells. Commercial FITC-, PE- or allophycocyanin-conjugated antibodies were used. Sample data were collected on a FACScan flow cytometer (BD Biosciences) and analyzed using FlowJo cytometry analysis software (TreeStar, Ashland, Oreg.).
Pharmacodynamics of [aminopropyl]-IL-15 released from the microsphere-IL-15 of Example 10 were measured in normal, male C57BL/6J mice (n=3/group) (FIG. 14). Mice were dosed with microsphere-IL-15 (2.5, 12.5, 25 or 50 μg conjugated protein) prepared in Example 10. PMBCs were prepared and surface stained for flow cytometry analysis of NK1.1, CD3, CD8, and CD44 expressing cells. Commercial FITC-, PE- or allophycocyanin-conjugated antibodies were used. Sample data were collected on a FACScan flow cytometer (BD Biosciences) and analyzed using FlowJo cytometry analysis software (TreeStar, Ashland, Oreg.).

[5] = test system: T-cells in the spleen and islets; experiment: Pharmacodynamics of IL2 and IL2[N88R,C125S] in NOD mice (flow cytometry of spleen and islets); assay type: in vivo; conditions: daily injections 25,000 units for five days
Procedure: Mice were sacrificed 2 hours after the last injection and the spleen and pancreas were harvested for flow cytometry analysis to measure changes in total number of T-cells and their differentiation in the spleen and islets.

[6] = test system: Foxp3+CD4+ T-cells and CD8+ T-cells; experiment: Pharmacodynamics of microsphere-IL-2[N88R,C125S] in NOD mice (flow cytometry); assay type: in vivo
Procedure: Three groups of six NOD mice were used to determine the PK/PD of [aminopropyl]-IL-2[N88R,C125S] released from the microsphere-IL-2[N88R,C125S] conjugate. […] The second group was administered a subcutaneous injection of empty microspheres, in which cyclooctynes were capped with N3(CH2CH2O)7H. The third group was administered a single subcutaneous injection of the microsphere-IL-2[N88R,C125S] of Example 4 (0.5, 1, 5, 10 or 19 mg of protein/kg). Plasma, peripheral blood mononuclear cells (PBMCs) and organ tissues were prepared and analyzed according to the description in figure legends. Flow cytometric analysis of lymphocytes was performed to monitor changes in T-cell populations. The spleen and lymph nodes and islets were isolated and single cell suspensions were prepared. Surface-staining was performed following standard cell surface immunofluorescence staining for flow cytometry. Fixation and intracellular staining followed protocols from the eBioscience Foxp3/Transcription Factor Staining Buffer Set (ThermoFisher Scientific). Antibodies used were against CD3, CD4, CD8, CD25, CD44 CD45, and FoxP3; all were from commercial vendors. Stained single cell suspension were analyzed using a LSRII flow cytometer (BD Biosciences).
The percentage CD8+ cells found in the spleen and PBMCs were approximately 11% and 19% respectively. These percentages increased to approximately 25% and 60% respectively, when treated with the microsphere-IL-2[N88R,C125S]. NOD mice were administered IL2-mutein (QDx5, 25,000 units), a single injection of empty microspheres or microsphere-IL-2[N88R,C125S](18 mg/kg). Mice were sacrificed 2 hours after the last dose on day 5.
To determine an effective dose that would expand the Foxp3^+CD4^+Tcells population without the activation of CD8′ cells, a dose titration study of microsphere-IL-2[N88R,C125S] was performed. Four concentrations of the microsphere-IL-2[N88R,C125S](0.5 mg/kg, 1 mg/kg, 5 mg/kg and 10 mg/kg) were tested and the pharmacodynamics were monitored through PBMCs over two weeks. […] Foxp3^+CD4^+T-cell expansion peaked at four days and returned to baseline levels at day 14 for all doses (FIG. 9 A).

[7] = test system: CD8+ effector Tmem cells; conditions: continuous infusion over 10 days; cited from earlier work
[8] = 2.5, 12.5, 25 or 50 μg conjugated protein
[9] = single sc injection 12.5, 25 or 50 μg
[10] = single injection 18 mg/kg, day 5

For “BAY 50-4798: IL-2 mutein having an arginine replacing asparagine at position 88, SEQ ID No: 2”, the “increase in selectivity for activation of Treg cells over Teff and NK cells” value [1] is given as 3,000 fold.
In the case of “IL-15[N72D]: IL-15 mutein with enhanced receptor agonism, SEQ ID No: 15”, the “fold increase in biological activity over native IL-15” value [2] is listed as 4-5 fold.
In the case of “MS-IL-15: BCN-activated PEG hydrogel microspheres loaded with linker-IL-15 (MeSO2 linker, N-terminal reductive alkylation)”, the “change in average mouse body weight” value ([3]; 2.4 nmol conjugated protein) is reported as “no significant change”, the “final average mouse body weight” value ([3]; 2.4 nmol conjugated protein, initial 25.1±1.3 g) is reported as 25.1 ± 1.4 g and the “change in average body weight” value [4, 8] is reported as “no significant change”. The “clinical observation: injection site reaction” value [4, 8] was “no injection site reaction”, the “fold expansion of NK cells at peak” value ([4]; 12.5, 25 or 50 μg) was 2-3 fold and the “CD44hiCD8+ T cells levels at 28 days” value ([4]; highest dose 50 μg) was “two-fold above the control group”. The “final average body weight” value ([4]; initial 25.1±1.3 g) was 25.1 ± 1.4 g, the “duration of expansion of CD44hiCD8+ T cells” value ([4]; single 50 ug injection) was 28 days and the “expansion of CD44hiCD8+ T cells” value [4] was “no observed expansion”. For the same substance, the “expansion of NK cells” value [4] was “not observed”, the “expansion of NK cells in PBMCs” value [4] was “dose dependent expansion” and the “expansion of NK cells in PBMCs” value ([4]; listed as microsphere-IL15) was “expands”. The “CD44hiCD8+ T cells remained elevated above the control group through” value [4, 9] was 21 days, the “expansion of CD44hiCD8+ T cells in PBMCs” value [4, 9] was “dose dependent expansion” and the “fold expansion of CD44hiCD8+ T cells at peak” value [4, 9] was “two to four fold”. For the same substance, the “time of peak CD44hiCD8+ T cell expansion post treatment” value [4, 9] was 5 days and the “expansion of CD44hiCD8+ T cells in PBMCs” value ([4]; single sc injection 12.5, 25 or 50 μg, listed as microsphere-IL15) was “expands”.
For “Proleukin: Aldesleukin (recombinant IL-2), used as native IL-2 comparator in NOD mice [reference compound]”, the “effect on CD4+ and CD8+ effector/memory T-cells in the spleen” value [5] was “increase in both T-cell populations” and the “effect on the T-cells in the islets compared to PBS vehicle” value [5] was “little to no effect”.
With “[aminopropyl]-IL-15: IL-15 with N-terminal aminopropyl remnant, released from microsphere-IL-15” the “AUCip compared to AUCsc” value ([3]; 50 μg) was “nearly two-fold higher”, the AUCip ([3]; released from MS-IL-15 50 μg i.p.) was 0.0252 µM·h and the AUCsc ([3]; released from MS-IL-15 50 μg s.c.) was 0.0149 µM·h.
With “microsphere-IL-2[N88R,C125S]: PEG hydrogel microspheres carrying linker-N-terminal aminopropyl-IL-2[N88R,C125S] (MeSO2 linker, reductive alkylation); releases [aminopropyl]-IL-2[N88R,C125S]” the “percentage / activation of CD8+ cells, dose titration” value ([6]; doses 0.5-10 mg/kg, PBMCs) was “did not increase; also recorded: avoids activation”, the “expansion of Foxp3+CD4+ T-cells in spleen and PBMC” value [6, 10] was “massive expansion” and the “percentage CD8+ cells, PBMCs” value [6, 10] was 60%. For the same substance, the “percentage of T-cells that were Foxp3+CD4+ T-cells, PBMC” value [6, 10] was ~55%, the “percentage of T-cells that were Foxp3+CD4+ T-cells, spleen” value [6, 10] was ~70% and the “expansion of Foxp3+CD4+ T-cells in PBMCs, dose titration” value ([6]; single injection 0.5, 1, 5, 10 mg/kg, two weeks) was “dose dependent expansion; also recorded: preferentially expands”.
For “rhIL-15: native IL-15, SEQ ID No: 12 [reference compound]”, the “expansion of CD44hiCD8+ T cells” value [4] is given as “no observed expansion”, the “expansion of NK cells” value [4] is given as “not observed” and the “expansion of CD8+ effector Tmem cells in the peripheral blood” value [7] is given as 100 x.
